The supplement of paper PMC11061612

Columns and labels:
Assay in all cases: Bliss excess, mean over the matrix (fraction); higher = more synergy
[1] = test system: HPAC (Pancreatic Carcinoma)
Summary of the method: (§1)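 Bliss excess equals the observed combination effect minus the expected value EA + EB − EA·EB, where EA and EB are the effects of each agent alone. Combination Emax is the second-highest inhibition within the matrix. Inhibition was scaled from CellTiter-Glo 2.0 luminescence, with 0 set by vehicle wells and 1 by blank wells, after 72 hours of two-drug dosing of cells plated in 1536-well plates.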

[2] = test system: MFH-ino (Other Solid Carcinomas)
Summary of the method: as §1

[3] = test system: G-292-Clone-A141B1 (Osteosarcoma)
Summary of the method: as §1

CAL-78 (Chondrosarcoma) = test system: CAL-78 (Chondrosarcoma)
Summary of the method: as §1

[4] = test system: 697 (B-Lymphoblastic Leukemia)
Summary of the method: as §1

IGR-1 (Melanoma) = test system: IGR-1 (Melanoma)
Summary of the method: as §1

[5] = test system: KARPAS-620 (Plasma Cell Myeloma)
Summary of the method: as §1

[6] = test system: KM-H2 (Hodgkin's Lymphoma)
Summary of the method: as §1

[7] = test system: KATOIII (Gastric Carcinoma)
Summary of the method: as §1

SN12C (Kidney Carcinoma) = test system: SN12C (Kidney Carcinoma)
Summary of the method: as §1

[8] = test system: EM-2 (Chronic Myelogenous Leukemia)
Summary of the method: as §1

[9] = test system: JiyoyeP-2003 (Burkitt's Lymphoma)
Summary of the method: as §1

[10] = test system: CFPAC-1 (Pancreatic Carcinoma)
Summary of the method: as §1

[11] = test system: NCI-H1793 (Lung Adenocarcinoma)
Summary of the method: as §1

[12] = test system: MDA-MB-231 (Breast Carcinoma)
Summary of the method: as §1

[13] = test system: SNU-C5 (Colorectal Carcinoma)
Summary of the method: as §1

[14] = test system: SW780 (Bladder Carcinoma)
Summary of the method: as §1

[15] = test system: NALM-6 (B-Lymphoblastic Leukemia)
Summary of the method: as §1

[16] = test system: MDA-MB-157 (Breast Carcinoma)
Summary of the method: as §1

[17] = test system: C3A (Hepatocellular Carcinoma)
Summary of the method: as §1

Row | Compound | Bliss excess [1] | Bliss excess [2] | Bliss excess [3] | Bliss excess (CAL-78 (Chondrosarcoma)) | Bliss excess [4] | Bliss excess (IGR-1 (Melanoma)) | Bliss excess [5] | Bliss excess [6] | Bliss excess [7] | Bliss excess (SN12C (Kidney Carcinoma)) | Bliss excess [8] | Bliss excess [9] | Bliss excess [10] | Bliss excess [11] | Bliss excess [12] | Bliss excess [13] | Bliss excess [14] | Bliss excess [15] | Bliss excess [16] | Bliss excess [17]
1 | CN(C)CCCOc1ccc(-c2ccc3ncc4c(c3c2)n(C2CCOCC2)c(=O)n4C)cn1 [AZD0156] + O=C(c1cc(Cc2n[nH]c(=O)c3ccccc23)ccc1F)N1CCN(C(=O)C2CC2)CC1 [Olaparib] (first compound max 3 µM, partner max 3 µM) | 0.0152 | -0.061 | -0.0003 | 0.0042 | 0.186 | -0.0006 | 0.0798 | 0.0575 | -0.0125 | -0.0357 | 0.0753 | 0.007 | -0.0026 | 0.0074 | 0.0221 | 0.0621 | -0.0007 | 0.173 | -0.0302 | -0.0171
2 | CN(CCO)CC[C@H](CSc1ccccc1)Nc1ccc(S(=O)(=O)NC(=O)c2ccc(N3CCC([C@@H](O)c4ccccc4-c4ccc(Cl)cc4)CC3)cc2)cc1S(=O)(=O)C(F)(F)F [AZD4320] + C1CN(CCC1(C(=O)N[C@@H](CCO)C2=CC=C(C=C2)Cl)N)C3=NC=NC4=C3C=CN4 [Capivasertib] (first compound max 1 µM, 7x7, partner max 3 µM) | -0.0571 | -0.0527 | -0.0041 | -0.0482 | -0.0179 | -0.0557 | 0.0032 | -0.0205 | -0.0385 | -0.0636 | 0.0261 | 0.0157 | -0.0527 | -0.0106 | -0.0517 | -0.067 | -0.053 | 0.0091 | -0.0178 | -0.0904
3 | COc1nnc2ccc(N3CCC(c4ccc(OCCN5CCN(C)C(=O)[C@H]5C)cc4)CC3)nn12 [AZD5153] + CC1(C)CCC(CN2CCN(c3ccc(C(=O)NS(=O)(=O)c4ccc(NCC5CCOCC5)c([N+](=O)[O-])c4)c(Oc4cnc5[nH]ccc5c4)c3)CC2)=C(c2ccc(Cl)cc2)C1 [Venetoclax] (first compound max 1 µM, 7x7, partner max 1 µM) | -0.0507 | -0.0608 | -0.0571 | -0.0999 | -0.0358 | -0.0221 | -0.0637 | 0.0245 | -0.0861 | -0.0343 | -0.0384 | -0.0302 | -0.0228 | -0.0104 | -0.0755 | -0.077 | -0.0071 | -0.0678 | -0.0454 | -0.105
4 | Cn1cnc2c(F)c(Nc3ccc(Br)cc3Cl)c(C(=O)NOCCO)cc21 [Selumetinib] + C[C@@H]1COCCN1C2=NC(=NC(=C2)C3(CC3)[S@](=N)(=O)C)C4=C5C=CNC5=NC=C4 [AZD6738] (first compound max 10 µM, 7x7, partner max 10 µM) | -0.0015 | 0.0029 | -0.0303 | -0.0911 | 0.0344 | 0.0257 | 0.0471 | -0.0148 | -0.0433 | -0.0169 | 0.0264 | -0.0145 | -0.0112 | -0.0402 | -0.025 | 0.0751 | 0.0087 | -0.0063 | -0.0203 | 0.0471
